Experimental data published in ChEMBL document CHEMBL6121008, “New series of 3-pyridyl-1,3-thiazoles: In vitro and in vivo anti-Trypanosomatidae profile, in vitro and in silico mechanism of action approach” (Eur J Med Chem, 2025).
pIC50: −log10 of the molar value.

What was measured:
Trypanosoma cruzi [1] = assay: (§1) Antiparasitic activity against trypomastigote form of Trypanosoma cruzi Tulahuen expressing Escherichia coli beta-galactosidase infected in mouse L929 cells assessed as reduction in parasitic growth using CPRG as substrate pretreated with compound for 96 hrs followed by substrate addition and measured after 16 to 20 hrs by Spectrophotometric analysis; assay type: functional, organism-based
[2] = Cytotoxicity against mouse L929 cells assessed as inhibition of cell viability incubated for 96 hrs by MTT assay; assay type: toxicity, cell-based
[3] = Selectivity index, ratio of CC50 for mouse L929 cells to IC50 for antiparasitic activity against trypomastigote and amastigote form of Trypanosoma cruzi Tulahuen expressing Escherichia coli beta-galactosidase infected in mouse L929 cells; assay type: toxicity; conditions: read-out: Selectivity Index
Trypanosoma cruzi [4] = assay: as §1, with “amastigote” for “trypomastigote”; assay type: functional, organism-based
Leishmania amazonensis [5] = assay: (§2) Antiparasitic activity against Leishmania amazonensis WHOM/00 LTB 0016 promastigote expressing Escherichia coli beta-galactosidase assessed as reduction in parasitic growth using CPRG as substrate preincubated with compound for 72 hrs followed by substrate addition and measured after 10 mins by Spectrophotometric analysis; assay type: functional, organism-based; conditions: for pIC50: Leishmania amazonensis, WHOM/00 LTB 0016, read-out: IC50
Leishmania infantum [6] = assay: as §2, with “infantum MHOM/MA/67/ITMAP-263” for “amazonensis WHOM/00 LTB 0016”; assay type: functional, organism-based; conditions: for pIC50: Leishmania infantum, MHOM/MA/67/ITMAP-263, read-out: IC50
Leishmania amazonensis [7] = assay: as §2, with “amastigote” for “WHOM/00 LTB 0016 promastigote”, “beta-galactosidase infected in mouse RAW264.7 cells” for “beta-galactosidase”, “24” for “72”, “2 to 6 hrs” for “10 mins”; assay type: functional, organism-based; conditions: for pIC50: Leishmania amazonensis, RAW264.7, read-out: IC50; for IC50: raw264.7
Leishmania infantum [8] = assay: Antiparasitic activity against Leishmania infantum amastigote expressing Escherichia coli beta-galactosidase infected in mouse RAW264.7 cells assessed as reduction in parasitic growth using CPRG as substrate preincubated with compound for 24 hrs followed by substrate addition and measured after 2 to 6 hrs by Spectrophotometric analysis; assay type: functional, organism-based; conditions: for pIC50: Leishmania infantum, RAW264.7, read-out: IC50; for IC50: raw264.7
[9] = Cytotoxicity against mouse RAW264.7 cells assessed as inhibition of cell viability incubated for 48 hrs by MTT assay; assay type: toxicity, cell-based
[10] = Selectivity index, ratio of CC50 for mouse RAW264.7 cells to IC50 for antiparasitic activity against Leishmania infantum MHOM/MA/67/ITMAP-263 promastigote expressing Escherichia coli beta-galactosidase; assay type: toxicity; conditions: read-out: Selectivity Index
[11] = Selectivity index, ratio of CC50 for mouse RAW264.7 cells to IC50 for antiparasitic activity against Leishmania infantum amastigote expressing Escherichia coli beta-galactosidase infected in mouse RAW264.7 cells; assay type: toxicity; conditions: read-out: Selectivity Index
[12] = Selectivity index, ratio of CC50 for mouse RAW264.7 cells to IC50 for antiparasitic activity against Leishmania amazonensis WHOM/00 LTB 0016 promastigote expressing Escherichia coli beta-galactosidase; assay type: toxicity; conditions: read-out: Selectivity Index
[13] = Selectivity index, ratio of CC50 for mouse RAW264.7 cells to IC50 for antiparasitic activity against Leishmania amazonensis amastigote expressing Escherichia coli beta-galactosidase infected in mouse RAW264.7 cells; assay type: toxicity; conditions: read-out: Selectivity Index
Trypanosoma cruzi [14] = assay: Antiparasitic activity against trypomastigote form of Trypanosoma cruzi Y assessed as appearance of twisted bodies by Electron micrographic analysis; assay type: functional, organism-based

pIC50 (Trypanosoma cruzi [1])	pIC50 (Trypanosoma cruzi [4])	SMILES	CC50 at 96 h [2] [µM]	selectivity ratio [3]	pIC50 (Leishmania amazonensis [5])	pIC50 (Leishmania infantum [6])	pIC50 (Leishmania amazonensis [7])	pIC50 (Leishmania infantum [8])	CC50 at 48 h [9] [µM]	selectivity ratio [10]	selectivity ratio [11]	selectivity ratio [12]	selectivity ratio [13]	IC50 (Leishmania amazonensis [5])	IC50 (Leishmania infantum [6])	IC50 (Leishmania infantum [8])	Activity (Trypanosoma cruzi [14])	IC50 (Leishmania amazonensis [7])
5.54	5.54	C/C(=N\N=c1\scc(-c2cccc([N+](=O)[O-])c2)n1-c1ccccc1)c1cccnc1	18.3	6.3	5.19	4.63	5.03	4.94	> 240	> 10.3	> 20.8	> 37	> 25.6	–	–	–	–	–
5.54	5.54	C/C(=N\N=c1\scc(-c2ccc([N+](=O)[O-])cc2)n1-c1ccccc1)c1cccnc1	25.8	8.9	4.73	3.93	5.11	5.04	22.1	0.2	2.4	1.2	2.9	–	–	–	–	–
5.12	5.12	C/C(=N\N=c1\scc(-c2ccc(F)cc2)n1-c1ccccc1)c1cccnc1	14.4	1.9	5.14	4.52	5.17	4.97	41.2	1.4	3.8	5.7	6.1	–	–	–	–	–
5.24	5.24	C/C(=N\N=c1\scc(-c2ccccc2)n1-c1ccccc1)c1cccnc1	11.6	2	4.81	4.51	4.87	5.05	29.4	0.9	3.3	1.9	2.2	–	–	–	–	–
6.00	6.00	C/C(=N\N=c1\scc(-c2cccc([N+](=O)[O-])c2)n1C)c1cccnc1	13.3	13.3	–	–	–	4.48	17.5	–	0.5	–	–	Not_active	Not_active	–	–	Not_active
> 6.70	> 6.70	COc1ccc(-c2cs/c(=N/N=C(\C)c3cccnc3)n2-c2ccccc2)cc1	5.2	> 26	5.28	4.78	5.22	5.02	22	1.3	2.3	4.2	3.7	–	–	–	–	–
5.47	5.47	C/C(=N\N=c1\scc(-c2ccc(C)cc2)n1-c1ccccc1)c1cccnc1	7.3	2.1	5.36	4.83	5.14	4.79	18.7	1.3	1.2	4.2	2.6	–	–	–	–	–

The remaining lines, values behind:

SMILES	pIC50 (Trypanosoma cruzi [1])	pIC50 (Trypanosoma cruzi [4])	CC50 at 96 h [2] [µM]	selectivity ratio [3]	pIC50 (Leishmania amazonensis [5])	pIC50 (Leishmania infantum [6])	pIC50 (Leishmania amazonensis [7])	pIC50 (Leishmania infantum [8])	CC50 at 48 h [9] [µM]	selectivity ratio [10]	selectivity ratio [11]	selectivity ratio [12]	selectivity ratio [13]	IC50 (Leishmania amazonensis [5])	IC50 (Leishmania infantum [6])	IC50 (Leishmania infantum [8])	Activity (Trypanosoma cruzi [14])	IC50 (Leishmania amazonensis [7])
COc1ccc(-c2cs/c(=N/N=C(\C)c3cccnc3)n2C)cc1	5.70	5.70	6.2	3.1	4.41	4.70	4.83	4.91	14.7	0.7	1.2	0.4	1	–	–	–	–	–
C[C@@H]1[C@H](O)[C@@H](C)/C=C/C=C/C=C/C=C/C=C/C=C/C=C/[C@H](O[C@@H]2O[C@H](C)[C@@H](O)[C@H](N)[C@@H]2O)C[C@@H]2O[C@](O)(C[C@@H](O)C[C@@H](O)[C@H](O)CC[C@@H](O)C[C@@H](O)CC(=O)O[C@H]1C)C[C@H](O)[C@H]2C(=O)O [AMPHOTERICIN B]	–	–	–	–	7.00	6.70	7.40	7.22	3.5	17.5	58.3	35	87.5	–	–	–	–	–
C/C(=N\N=c1\scc(-c2ccc(F)cc2)n1C)c1cccnc1	5.43	5.43	15.6	4.2	4.49	4.68	4.76	4.90	15	0.7	1.2	0.5	0.9	–	–	–	–	–
C/C(=N\N=c1/[nH]c(-c2ccc(F)cc2)cs1)c1cccnc1	5.42	5.42	> 320	> 84.2	–	–	4.35	–	52.3	–	–	–	0.6	Not_active	Not_active	Not_active	–	–
C/C(=N\NC(N)=S)c1cccnc1	–	–	–	–	–	–	3.56	3.79	213	–	1.3	–	0.8	Not_active	Not_active	–	–	–
CNC(=S)N/N=C(\C)c1cccnc1	–	–	–	–	3.47	–	3.74	–	148	–	–	0.4	0.8	–	Not_active	Not_active	–	–
CCCCCCCCCCCCCCCCOP(=O)([O-])OCC[N+](C)(C)C [MILTEFOSINE]	–	–	–	–	–	5.49	5.77	5.77	–	6.8	12.7	6.8	13.1	–	–	–	–	–
C/C(=N\N=c1/[nH]c(-c2ccc(C)cc2)cs1)c1cccnc1	5.41	5.41	293	75.1	< 3.49	–	4.48	–	25	–	–	< 0.1	0.8	–	Not_active	Not_active	Dose-dependent-effect	–
C/C(=N\N=c1\scc(-c2ccc(C)cc2)n1C)c1cccnc1	5.31	5.31	23	4.7	4.12	4.27	4.51	4.74	36.2	0.7	2	0.5	1.2	–	–	–	–	–
C/C(=N\N=c1/[nH]c(-c2ccc([N+](=O)[O-])cc2)cs1)c1cccnc1	4.23	4.23	> 295	> 5	–	–	3.53	4.34	63.6	–	1.4	–	0.2	Not_active	Not_active	–	–	–
C/C(=N\N=c1\scc(-c2ccc([N+](=O)[O-])cc2)n1C)c1cccnc1	5.60	5.60	88.6	35.4	3.78	3.70	–	–	41.2	0.2	–	0.2	–	–	–	Not_active	–	Not_active
C/C(=N\NC(=S)Nc1ccccc1)c1cccnc1	–	–	–	–	5.15	4.66	–	4.68	–	4.4	4.5	13.7	–	–	–	–	–	–
